Assay results published in patent publication US10036033B2, “Method of inhibiting sprouting in plant tissues” (Academia Sinica, priority 2014, dated 2018).

T1: VP1 (Zea mays, UniProt P26307)
T1 sequence (P26307 1-691): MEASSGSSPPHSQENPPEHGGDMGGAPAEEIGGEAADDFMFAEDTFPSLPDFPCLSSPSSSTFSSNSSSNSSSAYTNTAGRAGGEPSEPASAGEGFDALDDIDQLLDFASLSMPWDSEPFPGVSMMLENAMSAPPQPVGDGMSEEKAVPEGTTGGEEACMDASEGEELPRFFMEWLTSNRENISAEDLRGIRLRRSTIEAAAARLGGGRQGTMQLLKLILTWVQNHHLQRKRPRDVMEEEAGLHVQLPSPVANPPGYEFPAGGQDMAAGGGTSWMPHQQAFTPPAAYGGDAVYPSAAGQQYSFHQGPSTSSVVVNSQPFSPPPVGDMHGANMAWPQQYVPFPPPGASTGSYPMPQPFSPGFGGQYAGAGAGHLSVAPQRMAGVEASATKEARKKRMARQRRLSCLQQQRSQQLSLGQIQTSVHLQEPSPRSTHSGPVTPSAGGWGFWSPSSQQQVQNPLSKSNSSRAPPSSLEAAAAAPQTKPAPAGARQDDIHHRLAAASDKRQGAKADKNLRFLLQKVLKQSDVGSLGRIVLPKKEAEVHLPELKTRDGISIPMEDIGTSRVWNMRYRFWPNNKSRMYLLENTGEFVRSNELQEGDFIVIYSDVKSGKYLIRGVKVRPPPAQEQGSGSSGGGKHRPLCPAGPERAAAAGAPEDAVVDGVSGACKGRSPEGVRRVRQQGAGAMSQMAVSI

B1: OsFCA: Rice FCA protein, nuclear RNA-binding protein, SEQ ID NO: 1 (protein, listed as Oryza sativa)
chain: MHRGGDRSTDPSSGPAPGSRGGGDGRFGRGPSRWSSGGGGGGSGSPPHRFSRGGGGGGGDGGGGGGGGGRFHPYRGPSDHSGGGGYRSGGGGEYGEPGSGPRHRYGSGRGDHSDHDNRNNYVKLFIGSVPRTATEDDVRPLFEEHGDVVEVALIKDRKTGEQQGCCFVKYATSEEAERAIRALHNQYTLPGAMGPIQVRYADGERERHGAIEHKLFVASLNKQATAKEIEEIFAPYGHVEDVYIMKDGMRQSRGCGFVKFSSREPALAAMSALSGNYVMRGCEQPLIIRFADPKRPRPGGSRGGPAFGGPGFSPRSDAALVIRPTANLDEPRGRHMPPDSWHPSSPRSAPHQFNNFGSDNPMAPKGSTVTSTTDTATFRPQMFSGNGSLSSQTAVPSSSHMGMNPPPMAQGHHLGGQQIPPLQKLPGLPQNFPVQLQNNQLGQPLQGPAQQIGQLQVPQSMGPGSFGQNRLSGQLPVSQPLMQQNASVSAVQVPSAVSNSMQAIPGQQHLPSNVAPQMLQQPVQQMPSQAPQLLLQQQAALQSSYQSSQQAIYQLQQQLQLMQQQQQSNLNHQQPTQGQPVQSSNPGAPNAIIPSNINTIPQQATSPAVPLTCNWTEHTSPEGFKYYYNSITRESKWDKPEEYVLYEQQQQQQQQQKLLLLQQHKQKLAMQQLQSPPQAQTHPAMQPVQQIPQAQQGQQQMQMKQQELNYTQLQTPGAIDPSRIQQGIQSAQERAWKS

Legend:
[1] = tested on: ABA induced gene expression (ABRC1-GUS) in rice aleurone cells; test: ABRC1-GUS reporter expression assay in transgenic rice embryoless half-seeds (aleurone cells); format: cell-based, rice (Oryza sativa); conditions: wild type rice aleurone cells; 20 μM ABA, 24 h
Method: FIG. 1. FCA-overexpression enhances and FCA-RNAi suppresses ABA induced gene expression in rice aleurone cells. The reporter construct (A) ABRC1-GUS was bombarded into (B) FCA-overexpression and (C) FCA-RNAi transgenic rice embryoless half-seeds. Bars indicate GUS activities ±SE after 24 h of incubation of bombarded seeds in shooting buffer with or without 20 μM ABA.
Rice (Oryza sativa) cultivar Tainung 67 was used in this study. Rice seedlings were grown in Kimura B nutrient solution at 28° C., 16L/8D photoperiod. Barley seeds (Hordeum vulgare L. cv. Himalaya) were used in all the transient assays. Embryoless half-seeds were prepared as described (Gomez-Cadenas et al., 2001).
Rice FCA cDNA clones (GenBank Accession Numbers AK073225 and AK058419) were supplied by Rice Genome Resource Center (RGRC) of National Institute of Agricultural Sciences (NIAS). Coding region of rice FCA was amplified from FCA cDNA clone by PCR. Coding region of barley FCA was amplified from total RNA of barley seed by RT-PCR. For underexpression of FCA, nucleotide number 307-822 of rice FCA ORF and nucleotide number 1532-1945 of barley FCA ORF were amplified. All PCR products were T/A cloned into pCR8/GW/TOPO vector (Invitrogen). Sequences and orientations of inserts in vector were confirmed by sequencing. […]

[2] = tested on: ABA induced gene expression (ABRC1-GUS) in barley aleurone cells; test: Transient expression assay, ABRC1-GUS reporter, barley aleurone cells; format: cell-based, barley (Hordeum vulgare); conditions: 20 μM ABA, 24 h
Text: FIG. 2. FCA alters ABA but not GA pathway in barley aleurone cells. (A) Schemes of the reporter and effector constructs used in transient expression assays. (B) FCA-overexpression enhances and (D) FCA-RNAi suppresses ABA induced gene expression in barley aleurone cells. (C and E) GA induced gene expression is not affected. The reporter construct ABRC1-GUS or Amy32b-GUS was cobombarded into barley embryoless half-seeds with (+) or without (−) effector constructs Ubi-HvFCA-RNAi or Ubi-HvFCA. Bars indicate GUS activities ±SE after 24 h of incubation of bombarded embryoless half-seeds in shooting buffer with or without 20 μM ABA or 1 μM GA.
FIG. 9. FCA-overexpression enhances ABA induced gene expression in barley aleurone cells. (A) Schemes of the reporter and effector constructs used in transient expression assays. (B) The reporter construct ABRC1-GUS was cobombarded into barley embryoless half-seeds with (+) or without (−) effector constructs Ubi-HvFCA or Ubi-OsFCA. Bars indicate GUS activities ±SE after 24 h of incubation of bombarded embryoless half-seeds in shooting buffer with (+) or without (−) 10 μM ABA.
Rice (Oryza sativa) cultivar Tainung 67 was used in this study. Rice seedlings were grown in Kimura B nutrient solution at 28° C., 16L/8D photoperiod. Barley seeds (Hordeum vulgare L. cv. Himalaya) were used in all the transient assays. […]

VP1 = target: T1, VP1; test: In planta two-hybrid study; format: binding
ABI5 = test: In planta two-hybrid study; format: binding

Row | Molecule | ABRC1-GUS reporter induction by ABA treatment [1] | ABRC1-GUS reporter induction by ABA treatment [2] | Interaction with VP1 (VP1) | Interaction with ABI5 (ABI5)
1 | CC1=CC(=O)CC(C)(C)C1(O)/C=C/C(C)=C\C(=O)O (stereo not shown) [ABA] | highly induced | highly induced | – | –
2 | B1 | – | – | interacts with VP1 | not with ABI5 directly
